The values below come from patent publication US20240270741A1 (Cogent Biosciences, Inc., priority 2023, published 2024).

Broadly, the IC50 is the concentration that inhibits the measured activity by half.

Structures are written as SMILES.

Chain of FGFR2 (P21802 399-821 limits assumed): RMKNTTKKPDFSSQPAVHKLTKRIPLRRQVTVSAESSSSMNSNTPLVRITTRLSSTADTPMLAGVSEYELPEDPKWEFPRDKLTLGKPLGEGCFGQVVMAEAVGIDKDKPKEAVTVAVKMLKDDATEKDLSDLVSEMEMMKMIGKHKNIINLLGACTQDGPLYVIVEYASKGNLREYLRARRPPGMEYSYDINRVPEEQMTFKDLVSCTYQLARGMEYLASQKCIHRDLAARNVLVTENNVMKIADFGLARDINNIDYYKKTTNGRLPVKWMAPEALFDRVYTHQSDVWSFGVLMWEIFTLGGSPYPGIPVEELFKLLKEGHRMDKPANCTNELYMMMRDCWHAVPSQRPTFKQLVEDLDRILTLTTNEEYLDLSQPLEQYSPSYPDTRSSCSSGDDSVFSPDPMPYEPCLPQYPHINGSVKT

The first experiment concerns the target FGFR2 (Homo sapiens, UniProt P21802). Briefly: FGFR wild type enzyme assay (HTRF KinEASE-TK), FGFR2. Particulars: Enz FGFR2 (nM). In general terms: In TR-FRET formats the signal depends on donor and acceptor labels being close together.
For `Cc1ccnc(Sc2cc(-c3cnn(C4CCNCC4)c3)cn3ncc(C#N)c23)c1C` [Example 72, 4-((3,4-dimethylpyridin-2-yl)thio)-6-(1-(piperidin-4-yl)-1H-pyrazol-4-yl)pyrazolo[1,5-a]pyridine-3-carbonitrile], the half-inhibitory concentration (IC50) amounted to 3 nM. Still for that read-out and setting: to `Cc1c(-c2cc(Sc3cccc4c3ncn4C)c3c(C#N)cnn3c2)cnn1C1CCN(C)CC1` [Example 131, 4-(1-methylbenzimidazol-4-yl)sulfanyl-6-[5-methyl-1-(1-methyl-4-piperidyl)pyrazol-4-yl]pyrazolo[1,5-a]pyridine-3-carbonitrile] belongs 40 nM.

Turning to `N#Cc1cnn2cc(-c3cnn([C@H]4CCCNC4)c3)cc(Sc3cccc(C(F)(F)F)n3)c12` [Example 68, 6-[1-[(3S)-3-piperidyl]pyrazol-4-yl]-4-[[6-(trifluoromethyl)-2-pyridyl]sulfanyl] pyrazolo[1,5-a]pyridine-3-carbonitrile], the IC50 was 68 nM.

The experiment is the same for the next values; noted with them: Enz FGFR2 (nM), FGFR2 wild type enzyme.
Turning to `Cc1c(-c2cc(Sc3ccc(F)cn3)c3c(C#N)cnn3c2)cnn1[C@H]1CC[C@@H](O)CC1` [Example 290, 4-((5-fluoropyridin-2-yl)thio)-6-(1-((1s,4s)-4-hydroxycyclohexyl)-5-methyl-1H-pyrazol-4-yl)pyrazolo[1,5-a]pyridine-3-carbonitrile], the IC50 turned out to be 5 nM. Still for that read-out and setting: to `CC(=O)N1CCC(Cn2ncc(-c3cc(Sc4ncccc4F)c4c(C#N)cnn4c3)c2C)CC1` [Example 205, 6-(1-((1-acetylpiperidin-4-yl)methyl)-5-methyl-1H-pyrazol-4-yl)-4-((3-fluoropyridin-2-yl)thio)pyrazolo[1,5-a]pyridine-3-carbonitrile] belongs 3 nM; to `Cc1c(-c2cc(Sc3ncccc3F)c3c(C#N)cnn3c2)cnn1[C@H]1CC[C@@H](NC(=O)CO)CC1` [Example 228, N-((1s,4s)-4-(4-(3-cyano-4-((3-fluoropyridin-2-yl)thio)pyrazolo[1,5-a]pyridin-6-yl)-5-methyl-1H-pyrazol-1-yl)cyclohexyl)-2-hydroxyacetamide], 1 nM; to `Cc1c(-c2cc(Sc3ccccc3C#N)c3c(C#N)cnn3c2)cnn1[C@H]1CC[C@@H](NC(=O)C(C)(C)O)CC1` [Example 268, N-((1s,4s)-4-(4-(3-cyano-4-((2-cyanophenyl)thio)pyrazolo [1,5-a]pyridin-6-yl)-5-methyl-1H-pyrazol-1-yl)cyclohexyl)-2-hydroxy-2-methylpropanamide], 0.4 nM. On the same count and under the same terms, to `Cc1c(-c2cc(Sc3ncccc3F)c3c(C#N)cnn3c2)cnn1C1CCN(C(=O)[C@@H](C)O)CC1` [Example 193, (R)-4-((3-fluoropyridin-2-yl)thio)-6-(1-(1-(2-hydroxypropanoyl)piperidin-4-yl)-5-methyl-1H-pyrazol-4-yl)pyrazolo[1,5-a]pyridine-3-carbonitrile] belongs 2 nM; to `CC(=O)N1[C@@H]2CC[C@H]1C[C@@H](n1ncc(-c3cc(Sc4ncccc4F)c4c(C#N)cnn4c3)c1C)C2` [Example 262, 6-(1-((1R,3r,5S)-8-acetyl-8-azabicyclo[3.2.1]octan-3-yl)-5-methyl-1H-pyrazol-4-yl)-4-((3-fluoropyridin-2-yl)thio)pyrazolo[1,5-a]pyridine-3-carbonitrile], 3 nM. Still for that read-out and setting: to `Cc1c(-c2cc(Sc3ncc(F)cc3F)c3c(C#N)cnn3c2)cnn1C1CCN(C)CC1` [Example 328, 4-((3,5-difluoropyridin-2-yl)thio)-6-(5-methyl-1-(1-methylpiperidin-4-yl)-1H-pyrazol-4-yl)pyrazolo[1,5-a]pyridine-3-carbonitrile] belongs 3 nM. `Cc1c(-c2cc(Sc3ccc(F)cc3C#N)c3c(C#N)cnn3c2)cnn1[C@H]1CCCN(C(=O)CO)C1` [Example 332, (S)-4-((2-cyano-4-fluorophenyl)thio)-6-(1-(1-(2-hydroxyacetyl)piperidin-3-yl)-5-methyl-1H-pyrazol-4-yl)pyrazolo[1,5-a]pyridine-3-carbonitrile]: the 50% inhibitory concentration (IC50) came out at 1 nM. The same measure, in the same setting: to `CC(=O)N1CC[C@]2(CC[C@@H](n3ncc(-c4cc(Sc5ccccc5C#N)c5c(C#N)cnn5c4)c3C)CC2)C1` [Example 321, 6-(1-((5r,8r)-2-acetyl-2-azaspiro[4.5]decan-8-yl)-5-methyl-1H-pyrazol-4-yl)-4-((2-cyanophenyl)thio)pyrazolo [1,5-a]pyridine-3-carbonitrile] belongs 1 nM; to `CCN(C)[C@H]1CC[C@@H](n2ncc(-c3cc(Sc4ccccc4C#N)c4c(C#N)cnn4c3)c2C)CC1` [Example 256, 4-((2-cyanophenyl)thio)-6-(1-((1s,4s)-4-(ethyl(methyl)amino)cyclo-hexyl)-5-methyl-1H-pyrazol-4-yl)pyrazolo[1,5-a]pyridine-3-carbonitrile], 1 nM; to `CN[C@]1(C)CC[C@H](n2ncc(-c3cc(Sc4ccccc4C#N)c4c(C#N)cnn4c3)c2C)CC1` [Example 319, 4-((2-cyanophenyl)thio)-6-(5-methyl-1-((1s,4s)-4-methyl-4-(methylamino)cyclohexyl)-1H-pyrazol-4-yl)pyrazolo[1,5-a]pyridine-3-carbonitrile], 0.3 nM.

The experiment is the same for the next values; noted with them: Enz FGFR2 (nM), FGFR2 wild type enzyme assay.
In the case of `CN1CCN(c2ccc(-c3cc(Sc4ncccc4F)c4c(C#N)cnn4c3)cn2)CC1=O` [Example 656, 4-((3-fluoropyridin-2-yl)thio)-6-(6-(4-methyl-3-oxopiperazin-1-yl)pyridin-3-yl)pyrazolo[1,5-a]pyridine-3-carbonitrile], the concentration for half-maximal inhibition (IC50) is 2 nM. `N#Cc1ccccc1Sc1cc(-c2cnn(C3CCS(=O)(=O)CC3)c2)cn2ncc(C#N)c12` [Example 367, 4-((2-cyanophenyl)thio)-6-(1-(1,1-dioxidotetrahydro-2H-thiopyran-4-yl)-1H-pyrazol-4-yl)pyrazolo[1,5-a]pyridine-3-carbonitrile]: half-maximal inhibition (IC50) required 0.4 nM.

`COC(=O)N1CC[C@H](n2cc(-c3cc(Sc4ncccc4F)c4c(C#N)cnn4c3)cn2)C1` [Example 480, methyl (S)-3-(4-(3-cyano-4-((3-fluoropyridin-2-yl)thio)pyrazolo[1,5-a]pyridin-6-yl)-1H-pyrazol-1-yl)pyrrolidine-1-carboxylate] displayed an IC50 of 1 nM. With `N#Cc1ccccc1Sc1cc(-c2cnn([C@H]3CCN(CCO)C3)c2)cn2ncc(C#N)c12` [Example 485, (S)-4-((2-cyanophenyl)thio)-6-(1-(1-(2-hydroxyethyl)pyrrolidin-3-yl)-1H-pyrazol-4-yl)pyrazolo[1,5-a]pyridine-3-carbonitrile], the IC50 was 0.4 nM.

Molecule `Cc1c(-c2cc(Sc3ncccc3F)c3c(C#N)cnn3c2)cnn1C1CCN(C#N)CC1` [Example 557] displayed an IC50 of 2 nM. Same read-out and setting: to `Cc1c(-c2cc(Sc3ccc(F)cc3C#N)c3c(C#N)cnn3c2)cnn1C1CCOC1` (centres unmarked) [Example 547, 4-((2-cyano-4-fluorophenyl)thio)-6-(5-methyl-1-(tetrahydrofuran-3-yl)-1H-pyrazol-4-yl)pyrazolo[1,5-a]pyridine-3-carbonitrile] belongs 3 nM.

Molecule `Cc1c(-c2cc(Sc3ccc(F)cc3C#N)c3c(C#N)cnn3c2)cnn1[C@H]1CCCN(CCO)C1` [Example 336, (S)-4-((2-cyano-4-fluorophenyl)thio)-6-(1-(1-(2-hydroxyethyl)piperidin-3-yl)-5-methyl-1H-pyrazol-4-yl)pyrazolo[1,5-a]pyridine-3-carbonitrile] registered an IC50 of 1 nM. Same read-out and setting: to `CN1CC[C@H](n2cc(-c3cc(Sc4ccccc4C#N)c4c(C#N)cnn4c3)cn2)CC1=O` [Example 619, (S)-4-((2-cyanophenyl)thio)-6-(1-(1-methyl-2-oxopiperidin-4-yl)-1H-pyrazol-4-yl)pyrazolo[1,5-a]pyridine-3-carbonitrile] belongs 2 nM. On the same count and under the same terms, then `N#Cc1cc(F)ccc1Sc1cc(-c2cnn([C@H]3CCCNC3)c2)cn2ncc(C#N)c12` [Example 435, (S)-4-((2-cyano-4-fluorophenyl)thio)-6-(1-(piperidin-3-yl)-1H-pyrazol-4-yl)pyrazolo[1,5-a]pyridine-3-carbonitrile], with 1 nM; and `N#Cc1ccccc1Sc1cc(-c2cnn([C@@H]3CCNC3)c2)cn2ncc(C#N)c12` [Example 581, (R)-4-((2-cyanophenyl)thio)-6-(1-(pyrrolidin-3-yl)-1H-pyrazol-4-yl)pyrazolo[1,5-a]pyridine-3-carbonitrile], with 0.5 nM; and `Cc1c(-c2cc(Sc3ccc(F)cc3C#N)c3c(C#N)cnn3c2)cnn1[C@H]1CC[C@H](OC(=O)[C@@H](N)C(C)C)CC1` [Example 680, (1r,4S)-4-(4-(3-cyano-4-((2-cyano-4-fluorophenyl)thio)pyrazolo [1,5-a]pyridin-6-yl)-5-methyl-1H-pyrazol-1-yl)cyclohexyl L-valinate], with 1 nM. Still for that read-out and setting: then `N#Cc1ccccc1Sc1cc(-c2cnn([C@@H]3CCCN(C(=O)CO)C3)c2)cn2ncc(C#N)c12` [Example 536, (R)-4-((2-cyanophenyl)thio)-6-(1-(1-(2-hydroxyacetyl)piperidin-3-yl)-1H-pyrazol-4-yl)pyrazolo[1,5-a]pyridine-3-carbonitrile], with 1 nM; and `Cc1c(-c2cc(Sc3ccc(F)cc3C#N)c3c(C#N)cnn3c2)cnn1C1CCN(CCO)CC1` [Example 353, 4-((2-cyano-4-fluorophenyl)thio)-6-(1-(1-(2-hydroxyethyl)piperidin-4-yl)-5-methyl-1H-pyrazol-4-yl)pyrazolo[1,5-a]pyridine-3-carbonitrile], with 1 nM; and `CN(CC(O)CO)c1ccc(-c2cc(Sc3ccc(F)cc3C#N)c3c(C#N)cnn3c2)cn1` (centres unmarked) [Example 596, 4-((2-cyano-4-fluorophenyl)thio)-6-(6-((2,3-dihydroxypropyl)(methyl)amino)pyridin-3-yl)pyrazolo[1,5-a]pyridine-3-carbonitrile], with 1 nM. `COC(=O)N1CCC[C@H](n2cc(-c3cc(Sc4ccccc4C#N)c4c(C#N)cnn4c3)cn2)C1` [Example 482, methyl (S)-3-(4-(3-cyano-4-((2-cyanophenyl)thio)pyrazolo [1,5-a]pyridin-6-yl)-1H-pyrazol-1-yl)piperidine-1-carboxylate]: the 50% inhibitory concentration (IC50) is 1 nM. This counts as single-digit nanomolar.
